We go through one molecule from US20250361221A1, “SOLID STATE FORMS OF PALTUSOTINE AND PROCESS FOR PREPARATION THEREOF” (ASSIA CHEMICAL INDUSTRIES LTD., priority 2022, published 2025).

Common to all, as to type: physicochemical
Data set [1] can be described thus: Thermal stability: heating up to 100° C. for 30 minutes (XRPD). The following applies: Heating 100° C. The method, then: (§1) X-ray diffraction was performed on X-Ray powder diffractometer: Bruker D8 Advance; CuKα radiation (λ=1.5418 Å); Lynx eye detector; laboratory temperature 22-25° C.; PMMA specimen holder ring with silicon low background. Prior to analysis, the samples were gently ground by means of mortar and pestle in order to obtain a fine powder. The ground sample was adjusted into a cavity of the sample holder and the surface of the sample was smoothed by means of a cover glass.
(§2) • Scan range: 2-40 degrees 2-theta; • Scan mode: continuous; • Step size: 0.05 degrees; • Time per step: 0.5 s; • Sample spin: 30 rpm; • Sample holder: PMMA specimen holder ring with silicon low background.
Samples of Paltusotine forms PL1 and PL11 were subjected to heating up to 100° C. for 30 minutes. XRPD analysis of the sample confirmed no change in the starting material (Table 4): […]

A short description of data set [2]: Storage stability at different relative humidities and temperatures, 6 months (XRPD). The settings on record: for XRPD analysis results: 6 months. As for the experimental part: as §1, §2
Samples of Paltusotine form PL1 was subjected to conditions of different relative humidities at different temperatures. XRPD analysis was performed on the samples after 6 months.

Data set [3] is described as follows: Grinding experiments: strong grinding and solvent drop grinding (XRPD). The settings on record: 2 minutes. As for the experimental part: as §1, §2
Samples of Paltusotine forms PL1 and PL11 were subjected to strong grinding, and to solvent drop grinding in water, ethanol and isopropanol. Grinding was carried out on the samples alone, or in the presence of ethanol or water. In these experiments, about 20 mg of the sample is placed in a mortar and ground with a pestle for 2 minutes. The solvent, when used, as added to the crystalline material before grinding, in a volume of 10 microlitres. XRPD analysis performed on each of the samples after the grinding experiment, confirmed no change in the starting material (Table 3): […]

The nature of data set [4]: Stability to compression: pressure of 2 tons in a hydraulic press (XRPD). The settings on record: 2 tons/1 minute. The method, then:
as §1, §2
Samples of Paltusotine forms PL1 and PL11 were subjected to a pressure of 2 tons in a hydraulic press (Atlas® Autopress hydraulic press, set to 2 tons). XRPD analysis was performed on the samples after 1 minute.

`N#Cc1cccc(-c2ccc3ncc(-c4cc(F)cc(F)c4)c(N4CCC(N)CC4)c3c2)c1O` [Form PL1, Paltusotine]: the “Result (XRPD analysis)” value in data set [1] and in data set [4] was “Stable” each time. Also, the XRPD analysis results is given as “No change” in data set [2] (25° C., 60% RH); “No change” in data set [2] (40° C., 75% RH); “No change” in data set [3] (Solvent-drop grinding (ethanol), 10 microlitres); “No change” in data set [3] (Solvent-drop grinding (isopropanol), 10 microlitres); “No change” in data set [3] (Solvent-drop grinding (water), 10 microlitres); “No change” in data set [3] (Strong grinding, mortar and pestle). The “time stable after exposure to high and low relative humidity at different temperatures” value in data set [2] (25° C./60% RH and 40° C./75% RH) is listed as “at least 6 months”.
